{"source": "patent US20130096067A1", "about": "“DROSOPHILA TUMOR STEM CELL MODEL AND USES THEREOF” (priority 2011, published 2013); note: test concentration or dose not given here", "tested_on": "Raf-1^gof intestinal tumors", "conditions": "assessed three days later; for Log2 (fold) (luciferase activity, log2 of the fold difference relative to DMSO controls) / Fold (luciferase activity, fold difference relative to DMSO controls): screen of 480 ICCB compounds in vials, compounds fed to flies with one-day old Raf-1^gof tumors, esg-Gal4 luciferase; for Fold (luciferase activity, fold difference relative to DMSO controls) / Fold (luciferase activity relative to DMSO controls): averaged from multiple wells; for Log2 (fold) of luciferase activity relative to DMSO controls / Fold (luciferase activity relative to DMSO controls): ICCB compounds fed in vials to flies with one-day old Raf-1^gof tumors", "data": [{"smiles": "COCCOC(=O)C1=C(C)NC(C)=C(C(=O)OC(C)C)C1c1cccc([N+](=O)[O-])c1", "note": "(stereo not drawn) [NIMODIPINE]", "values": [{"measurement": "Log2 (fold) (luciferase activity, log2 of the fold difference relative to DMSO controls)", "result": "−0.238"}, {"measurement": "Fold (luciferase activity, fold difference relative to DMSO controls)", "result": 0.848}]}, {"smiles": "CCOC(=O)C1=C(C)NC(C)=C(C(=O)OC)C1c1cccc([N+](=O)[O-])c1", "note": "(stereo not drawn) [NITRENDIPINE]", "values": [{"measurement": "Log2 (fold) (luciferase activity, log2 of the fold difference relative to DMSO controls)", "result": "−0.400"}, {"measurement": "Fold (luciferase activity, fold difference relative to DMSO controls)", "result": 0.758}]}, {"smiles": "O=C(O)c1cc([N+](=O)[O-])ccc1NCCCc1ccccc1", "note": "[NPPB]", "values": [{"measurement": "Log2 (fold) (luciferase activity, log2 of the fold difference relative to DMSO controls)", "result": "−0.439"}, {"measurement": "Fold (luciferase activity, fold difference relative to DMSO controls)", "result": 0.738}]}, {"smiles": "CS(=O)(=O)Nc1ccc([N+](=O)[O-])cc1OC1CCCCC1", "note": "[NS-398]", "values": [{"measurement": "Log2 (fold) (luciferase activity, log2 of the fold difference relative to DMSO controls)", "result": "−0.592"}, {"measurement": "Fold (luciferase activity, fold difference relative to DMSO controls)", "result": 0.663}]}, {"smiles": "O=c1[nH]c2cc(C(F)(F)F)ccc2n1-c1cc(C(F)(F)F)ccc1O", "note": "[NS-1619]", "values": [{"measurement": "Log2 (fold) (luciferase activity, log2 of the fold difference relative to DMSO controls)", "result": "−0.495"}, {"measurement": "Fold (luciferase activity, fold difference relative to DMSO controls)", "result": 0.709}]}, {"smiles": "O=C1C(SCCO)=C(SCCO)C(=O)c2ccccc21", "note": "[NSC-95397]", "values": [{"measurement": "Log2 (fold) (luciferase activity, log2 of the fold difference relative to DMSO controls)", "result": "−0.495"}, {"measurement": "Fold (luciferase activity, fold difference relative to DMSO controls)", "result": 0.709}]}, {"smiles": "CCC(C)[C@H](NS(=O)(=O)c1cccc2ccccc12)C(=O)N[C@H](C=O)Cc1c[nH]c2ccccc12", "note": "(stereo partly drawn) [NapSul-Ile-Trp-CHO]", "values": [{"measurement": "Log2 (fold) (luciferase activity, log2 of the fold difference relative to DMSO controls)", "result": "−0.554"}, {"measurement": "Fold (luciferase activity, fold difference relative to DMSO controls)", "result": 0.681}]}, {"smiles": "CS(=O)(=O)Nc1ccc([N+](=O)[O-])cc1Oc1ccccc1", "note": "[Nimesulide]", "values": [{"measurement": "Log2 (fold) (luciferase activity, log2 of the fold difference relative to DMSO controls)", "result": "−0.264"}, {"measurement": "Fold (luciferase activity, fold difference relative to DMSO controls)", "result": 0.833}]}, {"smiles": "CCCCCCCCCCCCCCCCCCc1ccc(C(=O)/C=C/C(=O)O)cc1", "note": "[OBAA]", "values": [{"measurement": "Log2 (fold) of luciferase activity relative to DMSO controls", "result": "−0.169"}, {"measurement": "Fold (luciferase activity relative to DMSO controls)", "result": 0.890, "unit": "fold"}]}, {"smiles": "CCCCCCCCCCCCCCCCOC[C@H](COP(=O)([O-])OCC[N+](C)(C)C)OC(C)=O", "note": "[PAF C16]", "values": [{"measurement": "Log2 (fold) of luciferase activity relative to DMSO controls", "result": "−0.190"}, {"measurement": "Fold (luciferase activity relative to DMSO controls)", "result": 0.876, "unit": "fold"}]}, {"smiles": "CCCCCCCC/C=C\\CCCCCCCCOC[C@H](COP(=O)([O-])OCC[N+](C)(C)C)OC(C)=O", "note": "[PAF C18:1]", "values": [{"measurement": "Log2 (fold) (luciferase activity, log2 of the fold difference relative to DMSO controls)", "result": "−0.420"}, {"measurement": "Fold (luciferase activity, fold difference relative to DMSO controls)", "result": 0.747}]}, {"smiles": "CCCCCCCCCCCCCCCCCCOC[C@H](COP(=O)([O-])OCC[N+](C)(C)C)OC(C)=O", "note": "[PAF C18]", "values": [{"measurement": "Log2 (fold) (luciferase activity, log2 of the fold difference relative to DMSO controls)", "result": "−0.455"}, {"measurement": "Fold (luciferase activity, fold difference relative to DMSO controls)", "result": 0.729}]}, {"smiles": "CCCCCCCCCCCCCCCC(=O)NCCO", "note": "[PALMITYLETHANOLAMIDE]", "values": [{"measurement": "Log2 (fold) (luciferase activity, log2 of the fold difference relative to DMSO controls)", "result": "−0.486"}, {"measurement": "Fold (luciferase activity, fold difference relative to DMSO controls)", "result": 0.714}]}, {"smiles": "CC(C)(O)[C@H]1O[C@H]2CC[C@@]3(C)[C@@](O)(CC[C@H]4Cc5c([nH]c6ccccc56)[C@@]43C)C2=CC1=O", "note": "[PAXILLINE]", "values": [{"measurement": "Log2 (fold) of luciferase activity relative to DMSO controls", "result": "−0.078"}, {"measurement": "Fold (luciferase activity relative to DMSO controls)", "result": 0.948, "unit": "fold"}]}, {"smiles": "COC(=O)C1=C(C)NC(C)=C(C(=O)OCCSc2ccccc2)C1C", "note": "(stereo not drawn) [PCA 4248]", "values": [{"measurement": "Log2 (fold) of luciferase activity relative to DMSO controls", "result": "−0.180"}, {"measurement": "Fold (luciferase activity relative to DMSO controls)", "result": 0.883, "unit": "fold"}]}, {"smiles": "COc1cccc(-c2cc(=O)c3ccccc3o2)c1N", "note": "[PD 98059]", "values": [{"measurement": "Log2 (fold) (luciferase activity, log2 of the fold difference relative to DMSO controls)", "result": "−0.338"}, {"measurement": "Fold (luciferase activity, fold difference relative to DMSO controls)", "result": 0.791}]}, {"smiles": "Cc1ccc(N(CC2=NCCN2)c2cccc(O)c2)cc1", "note": "[PHENTOLAMINE]", "values": [{"measurement": "Log2 (fold) (luciferase activity, log2 of the fold difference relative to DMSO controls)", "result": "−0.321"}, {"measurement": "Fold (luciferase activity, fold difference relative to DMSO controls)", "result": 0.800}]}, {"smiles": "O=C1NC(=O)C(c2ccccc2)(c2ccccc2)N1", "note": "[PHENYTOIN]", "values": [{"measurement": "Log2 (fold) (luciferase activity, log2 of the fold difference relative to DMSO controls)", "result": "−0.300"}, {"measurement": "Fold (luciferase activity, fold difference relative to DMSO controls)", "result": 0.812}]}, {"smiles": "CCCCCCCCCCCCCCCC(=O)OCC(COP(=O)(O)O)OC(=O)CCCCCCCCCCCCCCC", "note": "(stereo not drawn) [PHOSPHATIDIC ACID, DIPALMITOYL]", "values": [{"measurement": "Log2 (fold) (luciferase activity, log2 of the fold difference relative to DMSO controls)", "result": "−0.288"}, {"measurement": "Fold (luciferase activity, fold difference relative to DMSO controls)", "result": 0.819}]}, {"smiles": "O=c1[nH]c2ccccc2n1C1CCN(CCCC(c2ccc(F)cc2)c2ccc(F)cc2)CC1", "note": "[PIMOZIDE]", "values": [{"measurement": "Log2 (fold) (luciferase activity, log2 of the fold difference relative to DMSO controls)", "result": "−0.425"}, {"measurement": "Fold (luciferase activity, fold difference relative to DMSO controls)", "result": 0.745}]}, {"smiles": "Cc1ccc(-c2nn(C(C)(C)C)c3ncnc(N)c23)cc1", "note": "[PP1]", "values": [{"measurement": "Log2 (fold) of luciferase activity relative to DMSO controls", "result": 0.503}, {"measurement": "Fold (luciferase activity relative to DMSO controls)", "result": 1.418, "unit": "fold"}]}, {"smiles": "CC(C)(C)n1nc(-c2ccc(Cl)cc2)c2c(N)ncnc21", "note": "[PP2]", "values": [{"measurement": "Log2 (fold) of luciferase activity relative to DMSO controls", "result": 0.062}, {"measurement": "Fold (luciferase activity relative to DMSO controls)", "result": 1.044, "unit": "fold"}]}, {"smiles": "O=C1C2CCN(CC2)C1(CO)CO", "note": "[PRIMA-1]", "values": [{"measurement": "Log2 (fold) of luciferase activity relative to DMSO controls", "result": "−0.110"}, {"measurement": "Fold (luciferase activity relative to DMSO controls)", "result": 0.926, "unit": "fold"}]}, {"smiles": "CCN(CC)CCNC(=O)c1ccc(N)cc1", "note": "[PROCAINAMIDE]", "values": [{"measurement": "Log2 (fold) (luciferase activity, log2 of the fold difference relative to DMSO controls)", "result": "−0.346"}, {"measurement": "Fold (luciferase activity, fold difference relative to DMSO controls)", "result": 0.787}]}]}
